Assay results reported in patent US12324795B2, “Autophagy activating agent” (WAKUNAGA PHARMACEUTICAL CO., LTD., priority 2018, dated 2025).

Experiments:
Type in all cases: cell-based
Atg7 = test: Western blotting of Atg7 expression (autophagy activation) in okadaic acid-treated human neuroblasts; settings: SH-SY5Y cells
Procedure: (§1) Human neuroblastoma cell line SH-SY5Y cells were cultured in a Dulbecco's modified Eagle medium supplemented with 10% fetal bovine serum, and antibiotic penicillin-streptomycin solution, and the cultured cells were used as cells for evaluation test.
Okadaic acid (at a concentration of 100 nM) and S1PC (at concentrations of 0.03, 0.1, and 0.3 mM) were added to the human neuroblasts for evaluation test prepared in (2) above, and the cells were cultured for 6 hours. After culturing, the cultured cells were washed with a phosphate buffer, and then lysed with RIPA cell lysis buffer (manufactured by Millipore Corporation) diluted 10-fold with purified water containing a protease/phosphatase cocktail inhibitor (manufactured by Thermo Fisher Scientific K.K.). After that, centrifugation was conducted (at 10000 rpm, for 10 minutes, at 4° C.), and the supernatant was used as a cell extract. This cell extract was used to conduct analysis by western blotting in accordance with a usual method. […]
10 nM okadaic acid, 0.3 mM S1PC, and 10 mM autophagy inhibitor (3-methyladenine) were added to the human neuroblasts for evaluation test prepared in (2) above, and the cells were cultured for 24 hours. A cell extract was prepared in the same manner as in (a) above, and analyzed by western blotting in accordance with a usual method. […]

tau protein = test: Western blotting of tau protein (tau protein-removing effect) in okadaic acid-treated human neuroblasts; settings: SH-SY5Y cells
Procedure: as §1
Okadaic acid (at a concentration of 100 nM) and S1PC (at concentrations of 0.03, 0.1, and 0.3 mM) were added to the human neuroblasts for evaluation test prepared in (2) above, and the cells were cultured for 6 hours. After culturing, the cultured cells were washed with a phosphate buffer, and then lysed with RIPA cell lysis buffer (manufactured by Millipore Corporation) diluted 10-fold with purified water containing a protease/phosphatase cocktail inhibitor (manufactured by Thermo Fisher Scientific K.K.). After that, centrifugation was conducted (at 10000 rpm, for 10 minutes, at 4° C.), and the supernatant was used as a cell extract. This cell extract was used to conduct analysis by western blotting in accordance with a usual method. An anti-Atg7 antibody (manufactured by Cell Signaling Technology, Inc.), an anti-4T-tau antibody (manufactured by Wako Pure Chemical Industries, Ltd.), and an anti-β-actin antibody (manufactured by Wako Pure Chemical Industries, Ltd.) were used as antibodies.
(§2) 10 nM okadaic acid, 0.3 mM S1PC, and 10 mM autophagy inhibitor (3-methyladenine) were added to the human neuroblasts for evaluation test prepared in (2) above, and the cells were cultured for 24 hours. A cell extract was prepared in the same manner as in (a) above, and analyzed by western blotting in accordance with a usual method. An anti-Atg7 antibody (manufactured by Cell Signaling Technology, Inc.), an anti-4T-tau antibody (manufactured by Wako Pure Chemical Industries, Ltd.), and an anti-β-actin antibody (manufactured by Wako Pure Chemical Industries, Ltd.) were used as antibodies.
as §2, with “50” for “10”, “acid and” for “acid,”, “S1PC or SAC” for “S1PC, and 10 mM autophagy inhibitor (3-methyladenine)”, “6” for “24”, “An” for “An anti-Atg7 antibody (manufactured by Cell Signaling Technology, Inc.), an”, “Ltd.)” for “Ltd.),”

caspase-3 = test: Western blotting of caspase-3 activation (apoptosis inhibitory effect) in okadaic acid-treated human neuroblasts; settings: SH-SY5Y cells, 100 nM okadaic acid, 0.3 mM S1PC, 6 hours, FIG. 3
Procedure: as §1
as §2, with “100” for “10”, “acid and” for “acid,”, “S1PC” for “S1PC, and 10 mM autophagy inhibitor (3-methyladenine)”, “6” for “24”, “anti-caspase-3” for “anti-Atg7”, “Inc.)” for “Inc.), an anti-4T-tau antibody (manufactured by Wako Pure Chemical Industries, Ltd.),”

LC3B-II = test: Western blotting of LC3B-II expression in rotenone-treated human neuroblasts; settings: SH-SY5Y cells, 10 μM rotenone, 0.3 mM S1PC, 1 mM 3-methyladenine, 3 hours, FIG. 5
Procedure: as §1
(§3) 10 μM rotenone, 0.3 mM S1PC, and 1 mM autophagy inhibitor (3-methyladenine) were added to the human neuroblasts for evaluation test prepared in (2) above, and the cells were cultured for 3 hours. A cell extract was prepared in the same manner as in (a) above, and analyzed by western blotting in accordance with a usual method. An anti-α-synuclein antibody, an anti-LC3B antibody (manufactured by Cell Signaling Technology, Inc.), and an anti-β-actin antibody (manufactured by MEDICAL & BIOLOGICAL LABORATORIES CO., LTD.) were used as antibodies.

α-synuclein protein = test: Western blotting of α-synuclein protein (α-synuclein protein-removing effect) in rotenone-treated human neuroblasts; settings: SH-SY5Y cells, 3 hours
Procedure: as §1, §3
as §3, with “500 nM” for “10 μM”, “rotenone, and” for “rotenone,”, “S1PC or SAC” for “S1PC, and 1 mM autophagy inhibitor (3-methyladenine)”, “(2),” for “(2) above,”, “used. […] Therefore, S1PC is considered to be useful for Parkinson's disease, for example, accompanied by α-synuclein protein accumulation.” for “used as antibodies.”

[1] = 10 nM okadaic acid, 0.3 mM S1PC, 10 mM 3-methyladenine, 24 hours, FIG. 2
[2] = okadaic acid 100 nM, S1PC 0.03, 0.1 and 0.3 mM, 6 hours, FIG. 1

SMILES: CC=CSCC(N)C(=O)O (centres unmarked) [S1PC, S-1-propenylcysteine]
- Atg7 expression-increasing effect with autophagy inhibitor (Atg7; [1]): suppressed by adding the autophagy inhibitor
- Atg7 expression (Atg7; [2]): increased
- tau protein-removing effect with autophagy inhibitor (tau protein; [1]): suppressed by adding the autophagy inhibitor
- tau protein-removing effect compared with SAC (tau protein; 50 nM okadaic acid, 0.3 mM S1PC or SAC, 6 hours, FIG. 4): superior to SAC
- tau protein (tau protein; 50 nM okadaic acid, 0.3 mM, 6 hours, FIG. 4): decreased
- removal of tau proteins (tau protein; [2]): promoted removal
- activation of caspase-3 (caspase-3): suppressed
- LC3B-II expression-increasing effect with autophagy inhibitor (LC3B-II): suppressed by adding the autophagy inhibitor
- α-synuclein protein-removing effect compared with SAC (α-synuclein protein; 500 nM rotenone, 0.3 mM S1PC or SAC, FIG. 6): superior to SAC
- α-synuclein protein (α-synuclein protein; 500 nM rotenone, 0.3 mM, FIG. 6): decreased
- α-synuclein protein-removing effect with autophagy inhibitor (α-synuclein protein; 10 μM rotenone, 0.3 mM S1PC, 1 mM 3-methyladenine, FIG. 5): suppressed by adding the autophagy inhibitor
